Data as given in ChEMBL document CHEMBL1140099, “Identification of BRAF inhibitors through in silico screening” (J Med Chem, 2008).

Biological target: Phosphatidylinositol 4,5-bisphosphate 3-kinase catalytic subunit gamma isoform (Homo sapiens, UniProt P48736)
Test: Inhibition of human recombinant PI3Kgamma catalytic domain

Chain of Phosphatidylinositol 4,5-bisphosphate 3-kinase catalytic subunit gamma isoform (P48736 whole entry, the tested form may be a part, canonical isoform): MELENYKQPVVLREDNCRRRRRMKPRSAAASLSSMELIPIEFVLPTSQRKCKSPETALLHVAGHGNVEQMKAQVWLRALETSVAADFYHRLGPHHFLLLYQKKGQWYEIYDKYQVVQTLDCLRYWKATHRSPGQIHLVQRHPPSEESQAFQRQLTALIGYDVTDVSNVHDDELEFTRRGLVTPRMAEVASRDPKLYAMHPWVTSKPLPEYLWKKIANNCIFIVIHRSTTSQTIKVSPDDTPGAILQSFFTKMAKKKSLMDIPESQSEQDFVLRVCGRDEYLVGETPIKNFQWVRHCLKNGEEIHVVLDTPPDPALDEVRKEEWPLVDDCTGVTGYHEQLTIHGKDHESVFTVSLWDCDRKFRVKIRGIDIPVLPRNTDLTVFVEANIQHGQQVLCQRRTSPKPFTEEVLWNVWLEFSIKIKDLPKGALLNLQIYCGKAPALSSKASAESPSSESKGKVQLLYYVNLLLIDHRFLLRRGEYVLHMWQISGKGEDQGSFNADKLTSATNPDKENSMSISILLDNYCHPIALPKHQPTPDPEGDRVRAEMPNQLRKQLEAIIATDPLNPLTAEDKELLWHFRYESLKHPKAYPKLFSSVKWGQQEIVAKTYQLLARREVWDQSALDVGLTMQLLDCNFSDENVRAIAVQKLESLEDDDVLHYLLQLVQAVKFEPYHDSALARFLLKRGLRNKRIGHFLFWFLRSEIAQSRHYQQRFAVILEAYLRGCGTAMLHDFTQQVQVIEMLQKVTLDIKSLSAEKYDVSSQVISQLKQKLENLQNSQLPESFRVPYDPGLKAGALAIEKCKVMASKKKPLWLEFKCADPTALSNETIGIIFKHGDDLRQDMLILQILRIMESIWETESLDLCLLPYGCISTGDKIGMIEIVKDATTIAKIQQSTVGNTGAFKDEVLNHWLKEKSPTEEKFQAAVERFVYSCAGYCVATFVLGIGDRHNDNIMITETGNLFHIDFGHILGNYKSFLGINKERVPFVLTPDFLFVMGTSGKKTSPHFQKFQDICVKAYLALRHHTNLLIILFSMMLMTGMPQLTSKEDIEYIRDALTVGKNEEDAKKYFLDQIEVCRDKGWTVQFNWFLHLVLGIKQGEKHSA

| IC50 [µM] | Compound |
| --- | --- |
| 25 | Cn1c(=O)n(Cc2ccccc2)c(=O)c2c1nc(SCCO)n2Cc1ccccc1 |

Biological target: T1, Serine/threonine-protein kinase B-raf (Homo sapiens, UniProt P15056)
Test: Inhibition of human cloned wild type BRAF at 50 uM by ELISA-based MEK phosphorylation assay

T1 sequence (P15056 whole entry): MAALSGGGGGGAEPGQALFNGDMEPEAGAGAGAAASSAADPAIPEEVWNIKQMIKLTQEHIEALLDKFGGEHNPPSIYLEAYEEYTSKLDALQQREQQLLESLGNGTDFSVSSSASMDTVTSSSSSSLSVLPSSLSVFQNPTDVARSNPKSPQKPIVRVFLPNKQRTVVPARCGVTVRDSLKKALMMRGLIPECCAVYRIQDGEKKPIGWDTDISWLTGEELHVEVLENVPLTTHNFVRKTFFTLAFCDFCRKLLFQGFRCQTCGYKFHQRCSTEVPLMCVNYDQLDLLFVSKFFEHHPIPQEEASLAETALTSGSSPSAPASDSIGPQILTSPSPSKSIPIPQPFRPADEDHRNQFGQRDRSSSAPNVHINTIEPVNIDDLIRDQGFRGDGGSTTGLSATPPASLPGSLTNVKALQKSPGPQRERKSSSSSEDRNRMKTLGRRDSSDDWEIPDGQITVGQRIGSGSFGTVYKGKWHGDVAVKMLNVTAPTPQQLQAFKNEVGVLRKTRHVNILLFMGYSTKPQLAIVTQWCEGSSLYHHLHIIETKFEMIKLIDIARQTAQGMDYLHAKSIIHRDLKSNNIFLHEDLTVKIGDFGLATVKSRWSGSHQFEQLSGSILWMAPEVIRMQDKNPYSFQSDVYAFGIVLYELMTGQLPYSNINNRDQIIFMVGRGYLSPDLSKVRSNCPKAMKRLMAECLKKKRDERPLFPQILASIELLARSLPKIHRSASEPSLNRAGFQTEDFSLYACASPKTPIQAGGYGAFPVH

| inhibition [%] | Compound |
| --- | --- |
| 90 | Cn1c(=O)[nH]c(=O)c2c1nc(S)n2Cc1ccc(Cl)cc1 |

Biological target: T1, Serine/threonine-protein kinase B-raf
Description: Inhibition of human cloned wild type BRAF by ELISA-based MEK phosphorylation assay

| Compound | IC50 [µM] |
| --- | --- |
| CCN(CC)Cc1c(C(=O)N/N=C/c2ccco2)nnn1-c1nonc1N | > 100 |
| COc1cccc(C2CC(C(F)(F)F)n3ncc(C(=O)Nc4ccc(OC)cc4OC)c3N2)c1 (stereo not drawn) | > 100 |
| CC1Nc2nc(NC(=O)c3ccc[n+](C)c3)[nH]c(=O)c2N(C(=O)c2ccc[n+](C)c2)C1C (stereo not drawn) | 29.4 |
| Cc1cccc(C)c1NC(=O)CSc1nnc(CN2CCOCC2)n1C | > 100 |
| COc1ccc(CN2CCCN(Cc3ccc(OC)cc3)C2c2cccc(C)n2)cc1 | > 100 |
| O=C(NC(C(=O)c1ccccc1)N1CCOCC1)c1cccs1 (stereo not drawn) | > 100 |
| COc1ccc(OC)c(C(O)c2coc3ccc(O)c(CN4CCOCC4)c23)c1 (stereo not drawn) | > 100 |
| COc1cc(C2C(C#N)=C(N)OC3=C2C(=O)CCC3)ccc1Cn1nc(C)c([N+](=O)[O-])c1C (stereo not drawn) | > 100 |
| COc1ccccc1N1C(=O)CC(N2CCC(C(N)=O)CC2)C1=O (stereo not drawn) | > 100 |
| CN1CCN(Cc2c3c(c(CN4CCN(C)CC4)c4c2CCC4)CCC3)CC1 | > 100 |
| CC(=O)c1c(C)nn2c3ccccc3n(CCN3CCOCC3)c12 | > 100 |
| CN1CCN(CC(=O)N2N=C(c3cccs3)CC2c2ccco2)CC1 (stereo not drawn) | > 100 |
| Cc1cc(C2C(C(=O)c3ccc4c(c3)OCCO4)=C(O)C(=O)N2CCCn2ccnc2)co1 (stereo not drawn) | > 100 |

Other lines, results leading:

| IC50 [µM] | Compound |
| --- | --- |
| 37.5 | C=CCn1c(N/N=C\c2cccc([N+](=O)[O-])c2)nc2c1c(=O)[nH]c(=O)n2C |
| > 100 | COc1cc(/C=N/NC(=O)CN2CCN(c3ccc(F)cc3)CC2)ccc1O |
| 1.72 | Cn1c(=O)n(Cc2ccccc2)c(=O)c2c1nc(SCCO)n2Cc1ccccc1 |
| 57.7 | Cc1cc(C)n(-c2nc3c(c(=O)n(C)c(=O)n3C)n2Cc2ccccc2)n1 |
| 4.6 | C/C(=N/Nc1nc2c(c(=O)[nH]c(=O)n2C)n1Cc1ccccc1)c1ccc([N+](=O)[O-])cc1 |
| 57.9 | Cn1c(=O)[nH]c(=O)c2c1nc(N/N=C\c1ccc([N+](=O)[O-])cc1)n2Cc1ccccc1 |
| 2.1 | Cn1c(=O)[nH]c(=O)c2c1[nH]c(=S)n2Cc1ccc(Cl)cc1 |
| > 100 | CCN1CCN(Cc2nc3cc(Cl)ccc3n2Cc2ccccc2)CC1 |
| > 50 | Cn1c(=O)[nH]c(=O)c2c1nc(N/N=C\c1cccc([N+](=O)[O-])c1)n2Cc1ccccc1 |
| 17.4 | C/C(Cl)=C/Cn1c(N/N=C(/C)c2ccc([N+](=O)[O-])cc2)nc2c1c(=O)[nH]c(=O)n2C |
| 3.75 | C/C(Cl)=C\CSc1nc2c(c(=O)[nH]c(=O)n2C)n1CC(O)CCc1ccccc1 (stereo not drawn) |
| 30.1 | CSc1nc2c(c(=O)[nH]c(=O)n2C)n1Cc1ccccc1 |
| > 100 | O=C(Cn1c2ccccc2n2ncnc12)c1cccs1 |
| > 100 | Cc1ccc(C2CC(c3ccccc3)=NN2C(=O)CN2CCOCC2)o1 (stereo not drawn) |
| 11.4 | C/C(=N/Nc1nc2c(c(=O)[nH]c(=O)n2C)n1Cc1ccccc1)c1ccccc1 |
| 11.1 | Cn1c(=O)[nH]c(=O)c2c1nc(SCC(N)=O)n2Cc1cccc(Br)c1 |
| 10.9 | C/C(Cl)=C\CSc1nc2c(c(=O)n(Cc3ccccc3)c(=O)n2C)n1Cc1ccccc1 |
| > 100 | COc1cccc(N2C(=O)CC(N3CCN(Cc4ccccc4)CC3)C2=O)c1 (stereo not drawn) |
